Assay results: PMC4774911, “Biochemical Screening of Five Protein Kinases from Plasmodium falciparum against 14,000 Cell-Active Compounds” (PLoS ONE, 2016)
Where “and” joins values, the source holds several entries; their conditions need not be identical. Equal entries are not always repeated.

Assays:
Assay in all cases: biochemical
Design in all cases: endogenous in cells; host or cells: K562 cell extract; species or system K562 (extract); replicate k of n = 2 (each experiment ID is one independent experiment; two experiment IDs per compound)
Settings in all cases: read-out: KDapp
STK16 = STK16 (Homo sapiens, UniProt O75716)
AURKB = AURKB (Homo sapiens, UniProt Q96GD4)
CHEK2 = CHEK2 (Homo sapiens, UniProt O96017)
GSK3A = GSK3A (Homo sapiens, UniProt P49840)
FER = FER (Homo sapiens, UniProt P16591)
CDK9 = CDK9 (Homo sapiens, UniProt P50750)
PCTK2 = PCTK2 (Homo sapiens, UniProt Q00537)
MARK2 = MARK2 (Homo sapiens, UniProt Q7KZI7)
MAP2K2 = MAP2K2 (Homo sapiens, UniProt P36507)
ACVR1B = biological target: T1, ACVR1B (Homo sapiens, UniProt P36896)
T1 sequence (P36896 1-505): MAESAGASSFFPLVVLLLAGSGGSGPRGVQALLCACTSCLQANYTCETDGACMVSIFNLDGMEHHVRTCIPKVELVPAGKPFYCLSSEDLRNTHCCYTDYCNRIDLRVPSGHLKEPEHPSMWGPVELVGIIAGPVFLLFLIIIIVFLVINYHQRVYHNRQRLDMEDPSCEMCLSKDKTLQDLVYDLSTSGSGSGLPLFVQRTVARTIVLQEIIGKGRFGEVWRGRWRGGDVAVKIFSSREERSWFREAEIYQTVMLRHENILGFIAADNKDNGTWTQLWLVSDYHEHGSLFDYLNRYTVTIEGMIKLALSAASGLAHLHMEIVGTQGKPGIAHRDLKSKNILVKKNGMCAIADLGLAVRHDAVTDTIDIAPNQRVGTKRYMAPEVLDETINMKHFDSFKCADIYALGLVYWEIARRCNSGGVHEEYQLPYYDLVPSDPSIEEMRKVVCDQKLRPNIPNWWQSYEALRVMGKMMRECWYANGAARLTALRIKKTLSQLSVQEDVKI

PRKCB = PRKCB (Homo sapiens, UniProt P05771)
LYN = LYN (Homo sapiens, UniProt P07948)
SRC = SRC (Homo sapiens, UniProt P12931)
Chain of SRC (P12931 whole entry): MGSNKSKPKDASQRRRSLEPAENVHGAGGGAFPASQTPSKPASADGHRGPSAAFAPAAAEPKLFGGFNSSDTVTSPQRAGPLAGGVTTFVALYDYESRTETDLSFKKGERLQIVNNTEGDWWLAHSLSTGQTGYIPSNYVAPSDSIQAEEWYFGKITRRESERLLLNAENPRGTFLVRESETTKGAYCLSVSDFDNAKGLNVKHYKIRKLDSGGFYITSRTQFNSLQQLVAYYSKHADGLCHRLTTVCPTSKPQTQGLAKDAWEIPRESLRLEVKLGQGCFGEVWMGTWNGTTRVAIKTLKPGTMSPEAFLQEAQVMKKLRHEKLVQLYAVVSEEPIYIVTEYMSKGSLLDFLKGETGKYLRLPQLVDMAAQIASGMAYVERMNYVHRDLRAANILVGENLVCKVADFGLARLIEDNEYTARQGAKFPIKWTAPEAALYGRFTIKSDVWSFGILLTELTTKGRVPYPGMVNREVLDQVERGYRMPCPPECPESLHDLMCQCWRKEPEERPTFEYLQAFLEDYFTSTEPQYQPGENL

Chain of STK16 (O75716 whole entry): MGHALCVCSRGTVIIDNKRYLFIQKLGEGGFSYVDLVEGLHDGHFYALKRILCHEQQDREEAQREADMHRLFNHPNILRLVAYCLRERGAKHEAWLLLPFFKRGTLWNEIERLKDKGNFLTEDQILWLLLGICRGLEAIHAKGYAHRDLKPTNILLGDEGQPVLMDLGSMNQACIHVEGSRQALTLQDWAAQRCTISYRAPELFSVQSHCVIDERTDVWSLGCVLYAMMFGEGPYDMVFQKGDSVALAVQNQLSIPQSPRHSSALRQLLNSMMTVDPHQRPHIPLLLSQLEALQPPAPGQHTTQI
Chain of MARK2 (Q7KZI7 whole entry): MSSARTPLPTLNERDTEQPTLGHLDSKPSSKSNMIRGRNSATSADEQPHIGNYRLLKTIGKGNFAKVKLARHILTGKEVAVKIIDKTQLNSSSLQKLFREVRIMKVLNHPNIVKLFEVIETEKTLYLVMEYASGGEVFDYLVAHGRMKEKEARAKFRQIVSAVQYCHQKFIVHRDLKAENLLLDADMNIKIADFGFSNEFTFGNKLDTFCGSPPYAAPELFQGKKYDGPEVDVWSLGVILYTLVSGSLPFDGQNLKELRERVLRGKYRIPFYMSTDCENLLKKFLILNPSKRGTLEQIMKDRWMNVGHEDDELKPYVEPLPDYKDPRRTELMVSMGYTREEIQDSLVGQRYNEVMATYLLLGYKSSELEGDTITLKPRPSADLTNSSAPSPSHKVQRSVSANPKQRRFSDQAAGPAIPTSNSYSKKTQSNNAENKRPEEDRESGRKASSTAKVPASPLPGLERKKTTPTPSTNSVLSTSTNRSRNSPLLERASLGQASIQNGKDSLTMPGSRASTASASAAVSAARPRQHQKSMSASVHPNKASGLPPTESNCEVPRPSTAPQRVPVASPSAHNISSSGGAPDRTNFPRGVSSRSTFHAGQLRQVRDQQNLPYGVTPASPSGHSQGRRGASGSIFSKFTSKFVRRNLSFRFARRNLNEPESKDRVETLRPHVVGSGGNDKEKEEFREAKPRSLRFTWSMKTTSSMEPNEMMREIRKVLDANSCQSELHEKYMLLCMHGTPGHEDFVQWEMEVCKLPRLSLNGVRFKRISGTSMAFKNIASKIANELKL
Chain of AURKB (Q96GD4 whole entry): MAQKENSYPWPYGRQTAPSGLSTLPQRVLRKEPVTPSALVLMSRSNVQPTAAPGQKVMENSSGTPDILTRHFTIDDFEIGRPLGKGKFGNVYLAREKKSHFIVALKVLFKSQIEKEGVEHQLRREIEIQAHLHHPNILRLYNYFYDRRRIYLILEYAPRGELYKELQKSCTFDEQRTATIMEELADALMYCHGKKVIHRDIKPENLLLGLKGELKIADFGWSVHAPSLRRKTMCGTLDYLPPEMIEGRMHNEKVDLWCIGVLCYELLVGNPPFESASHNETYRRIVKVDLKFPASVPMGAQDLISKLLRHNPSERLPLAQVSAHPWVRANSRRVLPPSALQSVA
Chain of PCTK2 (Q00537 whole entry): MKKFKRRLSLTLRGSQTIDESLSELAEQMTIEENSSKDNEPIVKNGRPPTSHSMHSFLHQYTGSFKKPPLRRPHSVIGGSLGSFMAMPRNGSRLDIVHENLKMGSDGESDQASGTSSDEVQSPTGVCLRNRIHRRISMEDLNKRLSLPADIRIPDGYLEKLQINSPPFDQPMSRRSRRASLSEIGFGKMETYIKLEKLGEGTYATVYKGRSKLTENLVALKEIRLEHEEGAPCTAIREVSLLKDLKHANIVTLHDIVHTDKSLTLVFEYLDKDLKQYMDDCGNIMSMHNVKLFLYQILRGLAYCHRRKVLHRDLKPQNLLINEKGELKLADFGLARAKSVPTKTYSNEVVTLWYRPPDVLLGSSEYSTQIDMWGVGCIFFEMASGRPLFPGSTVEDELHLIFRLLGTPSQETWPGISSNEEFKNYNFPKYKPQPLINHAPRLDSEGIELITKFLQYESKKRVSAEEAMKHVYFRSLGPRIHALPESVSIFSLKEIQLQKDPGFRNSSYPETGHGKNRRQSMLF
Chain of FER (P16591 whole entry): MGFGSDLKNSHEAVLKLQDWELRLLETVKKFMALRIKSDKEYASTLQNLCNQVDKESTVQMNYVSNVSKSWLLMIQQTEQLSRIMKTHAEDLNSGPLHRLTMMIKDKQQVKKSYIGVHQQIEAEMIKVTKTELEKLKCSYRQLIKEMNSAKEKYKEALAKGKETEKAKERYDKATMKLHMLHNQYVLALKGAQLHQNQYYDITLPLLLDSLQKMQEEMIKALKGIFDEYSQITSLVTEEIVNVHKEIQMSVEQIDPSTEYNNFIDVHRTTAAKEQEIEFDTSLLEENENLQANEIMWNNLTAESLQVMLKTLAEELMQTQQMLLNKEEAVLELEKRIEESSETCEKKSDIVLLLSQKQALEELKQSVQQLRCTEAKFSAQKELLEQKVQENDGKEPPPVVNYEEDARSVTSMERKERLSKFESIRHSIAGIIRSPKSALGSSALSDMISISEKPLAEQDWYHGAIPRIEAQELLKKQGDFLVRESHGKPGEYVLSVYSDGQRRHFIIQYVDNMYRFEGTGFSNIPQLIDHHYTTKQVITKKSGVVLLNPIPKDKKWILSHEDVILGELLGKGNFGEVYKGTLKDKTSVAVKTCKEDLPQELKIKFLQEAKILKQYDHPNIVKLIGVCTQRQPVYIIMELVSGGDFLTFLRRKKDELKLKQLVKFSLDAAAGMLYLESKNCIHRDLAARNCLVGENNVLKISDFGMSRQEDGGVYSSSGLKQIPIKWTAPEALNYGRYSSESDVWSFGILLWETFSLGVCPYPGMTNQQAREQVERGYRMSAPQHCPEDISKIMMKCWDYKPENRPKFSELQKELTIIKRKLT
Chain of CDK9 (P50750 whole entry): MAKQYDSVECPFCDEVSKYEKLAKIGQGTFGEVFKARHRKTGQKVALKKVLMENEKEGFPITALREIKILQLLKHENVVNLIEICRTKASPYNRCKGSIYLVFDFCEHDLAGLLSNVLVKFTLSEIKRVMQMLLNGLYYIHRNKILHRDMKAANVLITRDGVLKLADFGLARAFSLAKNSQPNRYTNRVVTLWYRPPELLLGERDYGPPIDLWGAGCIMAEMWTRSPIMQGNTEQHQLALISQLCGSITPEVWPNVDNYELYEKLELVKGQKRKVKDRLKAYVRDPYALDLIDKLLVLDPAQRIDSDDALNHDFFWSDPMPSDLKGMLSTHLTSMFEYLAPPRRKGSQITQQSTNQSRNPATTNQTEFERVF
Chain of MAP2K2 (P36507 whole entry): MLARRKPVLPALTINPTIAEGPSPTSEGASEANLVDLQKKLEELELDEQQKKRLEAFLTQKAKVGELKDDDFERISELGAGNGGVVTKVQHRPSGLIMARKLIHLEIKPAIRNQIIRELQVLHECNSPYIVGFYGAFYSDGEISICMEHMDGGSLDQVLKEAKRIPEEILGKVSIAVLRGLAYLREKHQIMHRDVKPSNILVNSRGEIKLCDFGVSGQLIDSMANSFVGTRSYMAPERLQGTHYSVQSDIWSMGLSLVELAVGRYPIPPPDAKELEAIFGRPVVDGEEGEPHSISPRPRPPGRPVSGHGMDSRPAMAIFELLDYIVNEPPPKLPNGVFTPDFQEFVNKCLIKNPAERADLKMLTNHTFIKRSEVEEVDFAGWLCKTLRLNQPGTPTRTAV
Chain of LYN (P07948 whole entry): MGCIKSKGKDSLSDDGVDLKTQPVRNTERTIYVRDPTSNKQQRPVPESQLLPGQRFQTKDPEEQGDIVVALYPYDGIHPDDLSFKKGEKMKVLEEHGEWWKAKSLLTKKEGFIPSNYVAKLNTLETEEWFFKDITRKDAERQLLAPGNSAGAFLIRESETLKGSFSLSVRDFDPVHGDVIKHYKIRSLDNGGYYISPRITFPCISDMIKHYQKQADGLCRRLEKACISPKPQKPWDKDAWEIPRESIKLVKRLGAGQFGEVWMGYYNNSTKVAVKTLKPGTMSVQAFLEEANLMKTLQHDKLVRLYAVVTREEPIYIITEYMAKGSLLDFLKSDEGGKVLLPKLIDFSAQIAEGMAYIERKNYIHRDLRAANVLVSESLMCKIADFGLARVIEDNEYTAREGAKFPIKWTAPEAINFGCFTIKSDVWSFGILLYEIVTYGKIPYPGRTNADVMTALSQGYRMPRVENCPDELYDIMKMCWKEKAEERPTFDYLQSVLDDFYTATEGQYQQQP

Row | Compound | Kd (STK16) | Kd (AURKB) | Kd (CHEK2) [nM] | Kd (GSK3A) | Kd (FER) | Kd (CDK9) | Kd (PCTK2) | Kd (MARK2) | Kd (MAP2K2) | Kd (ACVR1B) [nM] | Kd (PRKCB) | Kd (LYN) | Kd (SRC)
1 | CN(C)CC(O)COc1ccc(Nc2ncc([N+](=O)[O-])c(Nc3ccccc3O)n2)cc1.O=C(O)C(F)(F)F (centres unmarked) [TCMDC-141399] | 551 nM | 1500 nM | 9020 | 2250 nM and 2480 nM | 335 nM and 292 nM | 2780 nM and 3820 nM | 1140 nM and 1060 nM | 3510 nM |  |  |  |  | 
2 | Cl.NCC1(c2nc(-c3ccc(Cl)c(O)c3)c(-c3ccncc3)[nH]2)CCCCC1 [TCMDC-141154] |  |  |  |  |  |  |  |  | 7880 nM | 240 | 5660 nM and 2780 nM | 621 nM | 111 nM
3 | CN1CCN(c2ccc(Nc3ncc(C#N)c(Nc4ccccc4C(N)=O)n3)cc2)CC1.Cl [TCMDC-134116] | 135 nM and 190 nM | 14.3 nM and 22.8 nM | 139 | 470 nM and 369 nM | 79.3 nM and 75.7 nM | 576 nM and 393 nM | 57.7 nM and 83.5 nM | 121 nM and 115 nM | 727 nM and 858 nM | 1630 | 410 nM | 134 nM and 167 nM | 184 nM and 157 nM
